In brackets after ≈: the same amount, converted by molar mass.
What was measured:
[1] = target: T1, Bromodomain-containing protein 4 (Homo sapiens, UniProt O60885); experiment: Inhibition of BRD4 BD2 (unknown origin) incubated for 30 mins in presence of fluorescent ligand by TR-FRET method
[2] = Artificial membrane permeability of the compound; assay type: ADME; details: PAMPA; read-out: permeability
[3] = target: T1, Bromodomain-containing protein 4; experiment: Inhibition of BRD4 BD1 (unknown origin) incubated for 30 mins in presence of fluorescent ligand by TR-FRET method
[4] = Solubility of the compound at pH 6.5 in fast state simulated intestinal fluid incubated for 16 hrs by HPLC analysis; assay type: physicochemical; details: fasted state simulated intestinal fluid (FaSSIF)
[5] = Solubility of the compound in saline by CLND method; assay type: physicochemical
[6] = Intrinsic clearance in human hepatocytes measured after 120 mins by LC-MS/MS analysis; assay type: ADME, cell-based, Hepatocyte; details: 2 h
[7] = target: Voltage-gated inwardly rectifying potassium channel KCNH2 (Homo sapiens, UniProt Q12809); experiment: Inhibition of hERG; assay type: toxicity
[8] = target: Cytochrome P450 3A4 (Homo sapiens, UniProt P08684); experiment: Inhibition of CYP3A4 (unknown origin); assay type: ADME
[9] = Intrinsic clearance in dog hepatocytes incubated upto 45 mins by LC-MS/MS analysis; assay type: ADME, cell-based, Canis lupus familiaris, Hepatocyte; details: 0.75 h
[10] = target: C-C motif chemokine 2 (Homo sapiens, UniProt P13500); experiment: Inhibition of MCP-1 in LPS-stimulated human whole blood incubate for 24 hrs by immuno assay; assay type: tissue-based
[11] = Intrinsic clearance in rat hepatocytes after 60 mins by LC-MS/MS analysis; assay type: ADME, cell-based, Hepatocyte; details: 1 h

Chain of Voltage-gated inwardly rectifying potassium channel KCNH2 (Q12809 whole entry): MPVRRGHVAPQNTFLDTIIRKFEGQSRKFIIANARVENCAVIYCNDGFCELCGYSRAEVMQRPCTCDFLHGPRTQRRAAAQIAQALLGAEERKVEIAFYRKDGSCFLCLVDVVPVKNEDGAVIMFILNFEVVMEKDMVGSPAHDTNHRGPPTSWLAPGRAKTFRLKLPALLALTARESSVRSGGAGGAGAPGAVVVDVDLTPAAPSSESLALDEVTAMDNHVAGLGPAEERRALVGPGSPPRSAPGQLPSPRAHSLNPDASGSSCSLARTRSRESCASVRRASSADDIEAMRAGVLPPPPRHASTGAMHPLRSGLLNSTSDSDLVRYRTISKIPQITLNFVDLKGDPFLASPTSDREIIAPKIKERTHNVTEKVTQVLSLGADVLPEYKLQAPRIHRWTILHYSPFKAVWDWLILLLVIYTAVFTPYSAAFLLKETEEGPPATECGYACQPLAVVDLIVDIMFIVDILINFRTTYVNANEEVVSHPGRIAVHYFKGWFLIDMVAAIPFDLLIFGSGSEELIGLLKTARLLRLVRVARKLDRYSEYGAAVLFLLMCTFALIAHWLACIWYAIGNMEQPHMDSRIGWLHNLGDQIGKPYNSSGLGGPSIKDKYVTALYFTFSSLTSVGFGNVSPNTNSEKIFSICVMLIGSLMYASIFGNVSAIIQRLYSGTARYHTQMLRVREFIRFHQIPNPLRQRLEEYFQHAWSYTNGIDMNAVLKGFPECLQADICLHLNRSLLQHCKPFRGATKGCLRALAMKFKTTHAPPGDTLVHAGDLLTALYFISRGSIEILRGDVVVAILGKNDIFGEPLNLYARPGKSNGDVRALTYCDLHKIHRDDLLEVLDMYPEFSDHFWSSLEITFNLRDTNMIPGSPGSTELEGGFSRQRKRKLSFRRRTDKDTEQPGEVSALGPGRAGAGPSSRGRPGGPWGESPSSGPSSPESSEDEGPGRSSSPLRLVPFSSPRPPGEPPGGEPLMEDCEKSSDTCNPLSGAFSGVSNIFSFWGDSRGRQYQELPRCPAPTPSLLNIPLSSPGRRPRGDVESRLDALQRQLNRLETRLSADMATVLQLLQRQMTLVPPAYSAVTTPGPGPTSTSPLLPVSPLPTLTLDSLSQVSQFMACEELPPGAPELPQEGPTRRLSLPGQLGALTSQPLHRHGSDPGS
Chain of Cytochrome P450 3A4 (P08684 whole entry): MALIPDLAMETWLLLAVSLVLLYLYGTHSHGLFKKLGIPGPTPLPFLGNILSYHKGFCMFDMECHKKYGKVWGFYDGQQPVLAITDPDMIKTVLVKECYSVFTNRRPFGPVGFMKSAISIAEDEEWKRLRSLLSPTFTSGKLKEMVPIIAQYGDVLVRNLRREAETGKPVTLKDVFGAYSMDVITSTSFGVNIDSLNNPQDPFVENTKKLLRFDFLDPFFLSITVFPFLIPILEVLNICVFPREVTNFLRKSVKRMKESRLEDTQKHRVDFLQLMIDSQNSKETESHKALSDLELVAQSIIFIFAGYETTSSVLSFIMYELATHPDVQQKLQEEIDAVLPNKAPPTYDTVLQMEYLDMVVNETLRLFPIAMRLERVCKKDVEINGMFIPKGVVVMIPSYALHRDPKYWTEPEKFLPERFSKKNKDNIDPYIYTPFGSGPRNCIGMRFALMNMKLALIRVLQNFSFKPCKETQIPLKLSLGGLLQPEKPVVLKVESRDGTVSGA
Chain of C-C motif chemokine 2 (P13500 whole entry): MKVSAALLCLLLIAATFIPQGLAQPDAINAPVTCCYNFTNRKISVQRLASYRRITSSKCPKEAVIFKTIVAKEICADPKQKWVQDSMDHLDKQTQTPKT

IC50 [1] [nM]	Papp [2] [×10⁻⁶ cm/s]	IC50 [3] [nM]	solubility at 16 h [4] [µg/mL]	solubility kinetic [5] [µg/mL]	CLH [6] [mL/min/g]	IC50 [8] [nM]	CLH [9] [mL/min/g]	IC50 [10] [nM]	CLH [11] [mL/min/g]	SMILES	IC50 [7] [nM]
79.4	35	316	90 (≈ 233 µM)	–	–	–	–	–	–	CCNC(=O)c1ccc2c(c1)[C@H](Nc1ccc(Cl)cn1)C[C@H](C)N2C(C)=O	–
158	31	501	279 (≈ 842 µM)	–	–	–	–	–	–	CC(=O)N1c2ccc(C#N)cc2[C@H](Nc2ccc(C#N)cn2)C[C@@H]1C	–
158	8.2	794	–	≥ 143	–	–	–	–	–	CC(=O)N1c2ccc(C(N)=O)cc2[C@H](Nc2ccc(C)cn2)C[C@@H]1C	–
158	25	794	44 (≈ 120 µM)	–	–	–	–	–	–	CCNC(=O)c1ccc2c(c1)[C@H](Nc1ccc(C)cn1)C[C@H](C)N2C(C)=O	–
100	4.6	200	> 1000	–	< 0.87	> 39800	< 1.26	251	4.3	CCNC(=O)c1ccc2c(c1)[C@H](Nc1ccc(C#N)cn1)C[C@H](C)N2C(C)=O	> 50100
1000	0.3	501	–	≥ 73	–	–	–	–	–	CCNC(=O)c1ccc2c(c1)[C@H](Nc1cnc(C#N)cn1)C[C@H](C)N2C(C)=O	–
79.4	15	251	884 (≈ 2460 µM)	–	–	> 39800	–	398	–	CC(=O)N1c2ccc(C(N)=O)cc2[C@H](Nc2ccc(Cl)cn2)C[C@@H]1C	> 50100
79.4	< 18	100	82 (≈ 211 µM)	–	–	–	–	–	–	CCNC(=O)c1ccc2c(c1)[C@H](Nc1ncc(Cl)cn1)C[C@H](C)N2C(C)=O	–
316	51	794	558 (≈ 1720 µM)	–	–	–	–	–	–	CC(=O)N1c2ccc(F)cc2[C@H](Nc2ccc(C#N)cn2)C[C@@H]1C	–
158	23	794	–	≥ 126	–	–	–	–	–	CCNC(=O)c1ccc2c(c1)[C@H](Nc1ccc(F)cn1)C[C@H](C)N2C(C)=O	–

The remaining lines, values behind:

SMILES	IC50 [1] [nM]	Papp [2] [×10⁻⁶ cm/s]	IC50 [3] [nM]	solubility at 16 h [4] [µg/mL]	solubility kinetic [5] [µg/mL]	CLH [6] [mL/min/g]	IC50 [8] [nM]	CLH [9] [mL/min/g]	IC50 [10] [nM]	CLH [11] [mL/min/g]	IC50 [7] [nM]
CC(=O)N1c2ccc(F)cc2[C@H](Nc2cnc(C)cn2)C[C@@H]1C	631	52	1260	> 1000	–	–	–	–	–	–	–
CC(=O)N1c2ccccc2[C@H](Nc2ccc(C#N)cn2)C[C@@H]1C	316	48	1000	533 (≈ 1740 µM)	–	–	–	–	–	–	–
CC(=O)N1c2ccc(F)cc2[C@H](Nc2cnc(C#N)cn2)C[C@@H]1C	1000	30	1260	–	99 (≈ 304 µM)	–	–	–	–	–	–
CC(=O)N1c2ccccc2[C@H](Nc2cnc(C#N)cn2)C[C@@H]1C	1260	32	1260	955 (≈ 3110 µM)	–	–	–	–	–	–	–
CC(=O)N1c2ccc(C(N)=O)cc2[C@H](Nc2cccc(Cl)c2)C[C@@H]1C	20	40	200	33 (≈ 92.2 µM)	–	–	–	–	–	–	–
CC(=O)N1c2ccc(C#N)cc2[C@H](Nc2cnc(C#N)cn2)C[C@@H]1C	501	19	501	60 (≈ 181 µM)	–	–	–	–	–	–	–
CC(=O)N1c2ccccc2[C@H](Nc2cnc(C)cn2)C[C@@H]1C	501	54	1000	270 (≈ 911 µM)	–	–	–	–	–	–	–
